Experiment: xn = mol fraction of the nth substance listed
Details: 100 kPa, Liquid; for speed of sound: Frequency=3 MHz, Sing-around technique in a fixed-path interferometer; for mass density: Vibrating tube method

OCCCO [propan-1,3-diol] + CCO
Details	mass density, 283.15 K [kg/m3]	mass density, 293.15 K [kg/m3]	mass density, 303.15 K [kg/m3]	mass density, 313.15 K [kg/m3]	speed of sound, 283.15 K [m/s]	speed of sound, 293.15 K [m/s]	speed of sound, 303.15 K [m/s]	speed of sound, 313.15 K [m/s]
x2 = 0	1058.85	1052.61	1046.36	1040.07	1659.5	1636.3	1613.6	1591.1
x2 = 0.05	1049.7	1043.39	1037.07	1030.71	1642.4	1618.9	1595.7	1572.9
x2 = 0.1	1040.25	1033.87	1027.48	1021.03	1623.9	1600.1	1576.5	1553.2
x2 = 0.15	1030.34	1023.87	1017.39	1010.85	1605.2	1580.9	1556.8	1533.1
x2 = 0.2	1020.03	1013.44	1006.78	999.86	1585.7	1560.9	1536.5	1511
x2 = 0.2499	1009.63	1003	996.35	989.64	1565.3	1540.2	1515.3	1490.6
x2 = 0.3004	998.62	991.91	985.17	978.36	1544.3	1518.7	1493.3	1468.1
x2 = 0.3502	987.34	980.54	973.69	966.78	1523	1496.8	1470.9	1445.3
x2 = 0.4	975.76	968.84	961.9	954.88	1501	1474.2	1447.8	1421.7
x2 = 0.4501	963.57	956.56	949.5	942.36	1478.2	1450.8	1423.8	1397.1
x2 = 0.5004	950.95	943.82	936.66	929.42	1454.4	1426.5	1399	1371.7
x2 = 0.5501	938.39	931.16	923.88	916.52	1431.2	1402.8	1374.6	1346.8
x2 = 0.6001	924.91	917.56	910.16	902.67	1406.4	1377.6	1348.8	1320.4
x2 = 0.65	911.17	903.69	896.16	888.54	1382.1	1352.5	1323.2	1294.2
x2 = 0.7	896.69	889.09	881.42	873.66	1356.6	1326.3	1296.4	1266.8
x2 = 0.7503	881.71	873.96	866.15	858.23	1331.1	1300.1	1269.4	1239.1
x2 = 0.8001	866.31	858.42	850.47	842.41	1304.9	1273.3	1242	1211.1
x2 = 0.8502	850.07	842.04	833.92	825.7	1278.5	1246.2	1214.2	1182.7
x2 = 0.9	833.71	825.51	817.24	808.85	1252.1	1219	1186.3	1154
x2 = 0.95	816.56	808.22	799.79	791.23	1225.1	1191.3	1157.9	1125

OCCCO [propan-1,3-diol] + O
Details	mass density, 283.15 K [kg/m3]	mass density, 293.15 K [kg/m3]	mass density, 303.15 K [kg/m3]	mass density, 313.15 K [kg/m3]	speed of sound, 283.15 K [m/s]	speed of sound, 293.15 K [m/s]	speed of sound, 303.15 K [m/s]	speed of sound, 313.15 K [m/s]
x2 = 0	1058.85	1052.61	1046.36	1040.07	1659.5	1636.3	1613.6	1591.1
x2 = 0.1022	1059.27	1053.04	1046.79	1040.48	1672.9	1650.1	1627.2	1605
x2 = 0.201	1059.47	1053.26	1047.01	1040.68	1686.6	1664	1641.4	1618.9
x2 = 0.2987	1059.49	1053.3	1047.05	1040.7	1702	1679.4	1656.8	1634.1
x2 = 0.3998	1059.07	1052.91	1046.67	1040.3	1717.3	1695.2	1672.8	1650.2
x2 = 0.4997	1057.91	1051.82	1045.61	1039.25	1732	1710.5	1688.7	1666.4
x2 = 0.5997	1055.48	1049.54	1043.42	1037.1	1742.7	1722.7	1701.9	1680.5
x2 = 0.6999	1050.47	1044.85	1039.01	1032.92	1742	1725.1	1707.1	1688.1
x2 = 0.7999	1041.86	1036.89	1031.59	1025.94	1718.2	1707.4	1695	1680.9
x2 = 0.8997	1025.27	1021.75	1017.64	1012.95	1637.8	1641.2	1641.6	1639

OCCCO [propan-1,3-diol] + CO
Details	mass density, 283.15 K [kg/m3]	mass density, 293.15 K [kg/m3]	mass density, 303.15 K [kg/m3]	mass density, 313.15 K [kg/m3]	speed of sound, 283.15 K [m/s]	speed of sound, 293.15 K [m/s]	speed of sound, 303.15 K [m/s]	speed of sound, 313.15 K [m/s]
x2 = 0	1058.85	1052.61	1046.36	1040.07	1659.5	1636.3	1613.6	1591.1
x2 = 0.05	1052.58	1046.29	1039.98	1033.62	1645.8	1622.5	1599.5	1576.8
x2 = 0.0996	1045.92	1039.56	1033.18	1026.76	1629.2	1605.8	1582.6	1559.7
x2 = 0.1503	1038.75	1032.32	1025.88	1019.37	1613.8	1590.1	1566.8	1543.7
x2 = 0.2	1031.38	1024.87	1018.34	1011.73	1596.8	1572.8	1549.2	1525.8
x2 = 0.2502	1023.44	1016.87	1010.26	1003.55	1578.8	1554.7	1530.8	1507.1
x2 = 0.2998	1015.08	1008.41	1001.72	994.98	1560.7	1536.1	1511.9	1487.9
x2 = 0.3491	1006.18	999.42	992.64	985.81	1540.2	1515.4	1490.9	1466.6
x2 = 0.3998	996.52	989.65	982.76	975.82	1519.5	1494.2	1469.3	1444.7
x2 = 0.4497	986.31	979.34	972.34	965.29	1497	1471.6	1446.3	1421.4
x2 = 0.5	975.38	968.29	961.17	953.99	1474	1448	1422.3	1397
x2 = 0.5501	963.77	956.54	949.29	941.97	1450.2	1423.8	1397.7	1371.9
x2 = 0.5994	951.07	943.69	936.28	928.82	1423.3	1396.4	1369.7	1343.4
x2 = 0.6501	936.86	929.32	921.74	914.15	1394.9	1367.3	1340.1	1313.3
x2 = 0.6998	922.43	914.7	906.94	899.12	1366.9	1338.6	1310.7	1283.3
x2 = 0.7499	906.27	898.33	890.37	882.34	1336	1307.1	1278.5	1250.5
x2 = 0.8	889.44	881.29	873.11	864.86	1305	1275.3	1246.1	1217.4
x2 = 0.8501	869.9	861.5	853.06	844.55	1269.1	1238.8	1208.7	1179.2
x2 = 0.9	849.27	840.58	831.86	823.05	1233.7	1202.3	1171.3	1140.9
x2 = 0.9501	826.76	817.77	808.72	799.59	1196	1164	1132.1	1100.8

Reference: the NIST ThermoML archive (doi:10.1016/j.tca.2016.09.005)
